According to patent US11548894B2, “Benzamide or benzamine compounds useful as anticancer agents for the treatment of human cancers” (The Board of Regents of the University of Texas System, priority 2015, dated 2023):
Read-outs that look alike come from different tables or passages of the source.

Key:
Mut6 cells (TD-NSC) = test: luminescence-based Celltiter-Glo cell viability assay (ATP levels) on Mut6 tumor derived neuronal stem cells; set-up: species or system mouse; details: ATP activity as measure of viability, 96 hours, read-out: EC50 (TD-NSC)
Text: A mouse colony with 100% incidence of GBM and with conditional knockout of p53, pTEN and NF1 genes (Mut6; glioblastoma) was used to isolate primary neuronal stem cells from GBM tumors cultured in 5% Oxygen and in serum free media with defined growth factors. Primary cells from multiple tumors were pooled for high throughput screening with controls against the University of Texas Southwestern (UTSW) compound file, which encompasses ˜200,000 synthetic compounds that represent a large chemical space from several commercial vendors, including 1200 marketed drugs from the Prestwick Chemical Library®, and 600 compounds that went to pre-clinical tests from the NIH library.
A luminescence-based Celltiter-Glo® assay was performed to measure cell viability, using ATP levels as the readout. In brief, opaque-walled multiwell plates with Mut6 cells in culture medium (25 μl per well, 384-well plates) were prepared. Control wells containing medium without cells were prepared to obtain a value for background luminescence. Test compounds were added to experimental wells, and incubated according to culture protocol. The plate and its contents were incubated at 37° C., 5% […] for 96 hours. An ATP standard curve was generated immediately prior to adding the CellTiter-Glo® Reagent. A volume of CellTiter-Glo® Reagent equal to the volume of cell culture medium present in each well (25 μl of reagent to 25 μl of medium containing cells for a 384-well plate) was added. The contents were mixed for 2 minutes on an orbital shaker to induce cell lysis. The plate was allowed to incubate at room temperature for 10 minutes to stabilize the luminescent signal and luminescence recorded. (e.g. GloMax®, Lumistar, SPECTROstar, PHERAstar FS).
Compound 4C12 served as initial lead compound for analog development and for additional studies. […] See Wager, T T et al, “Moving beyond rules: the development of a central nervous system multi-parameter-optimization (CNS MPO) approach to enable alignment of drug-like properties,” ACS Chem. Neurosci. 1(6): 435-49 (2010). IC50 curves for the analog compounds plotted as ATP activity (y axis, a measure of viability) vs. concentration (nM) (x-axis) are shown in FIG. 9.

[1] = S9 Metabolism Assay (half-life by substrate depletion); format: in vitro ADME; details: female, ICR/CD-1, S9 fractions, pH 7.5; mouse S9, 2 μM compound; time plotted in min; read-out: S9 T1/2
Procedure: Female ICR/CD-1 mouse S9 fractions were purchased from Celsis/In Vitro Technologies (Baltimore, Md.). 25 μl (0.5 mg) of S9 protein was added to a 15 ml glass screw cap tube. 350 μl of a 50 mM Tris, pH 7.5 solution, containing the compound of interest was added on ice. The final concentration of compound after addition of all reagents was 2 μM. 125 μl of an NADPH-regenerating system (1.7 mg/ml NADP, 7.8 mg/ml glucose-6-phosphate, 6 U/ml glucose-6-phosphate dehydrogenase in 2% w/v NaHCO3/10 mm MgCl2) was added for analysis of Phase I metabolism. Uridine 5′-diphospho-α-D-glucuronic acid (UDPGA 1.9 mg/ml) and 3′-phosphoadenosine-5′-phosphosulphate (PAPS, 100 mg/ml) were additionally added for phase II reactions. The tube was then placed in a 37° C. shaking water bath. At varying time points after addition of phase I and phase II cofactors, the reaction was stopped by the addition of 0.5 ml of methanol containing 0.2% formic acid and 200 ng/ml internal standard (either n-benzylbenzamide or tolbutamide, Sigma, St. Louis, Mo.). The samples were incubated 10′ at RT and then spun at 16,100×g for 5 min in a microcentrifuge. The supernatant was analyzed by LC-MS/MS. Metabolism of 7-ethoxycoumarin was used to monitor […] performance. Analytical methods were developed for each compound using an Applied Biosystems (Foster City, Calif.) 4000-QTrap, a combination triple quadrupole/ion trap instrument. The parent ion and the two most prominent daughter ions were followed to confirm compound identity, although only the most abundant daughter was used for quantitation. A Shimadzu (Columbia, Md.) Prominence LC with Agilent C18 XDB column (5 micron packing; 50×4.6 mm) was used for chromatography.
The method described in McNaney, et al (McNaney, C A, D M Drexler, S Hnatyshyn, T A Zvyaga, J O Knipe, J V Belcastro, and M Sanders. 2008. An automated liquid chromatography-mass spectrometry process to determine metabolic stability half-life and intrinsic clearance of drug candidates by substrate depletion. Assay and Drug Development Technologies 6:121-129. Determination of Plasma and Brain Pharmacokinetics) was used with modification for determination of metabolic stability half-life by substrate depletion. A “% remaining” value was used to assess metabolic stability of a compound over time. The LC/MS/MS peak area of the incubated sample at each time point was divided by the LC/MS/MS peak area of the time 0 (TO) sample and multiplied by 100. The natural Log (LN) of the % remaining of compound was then plotted versus time (in min) and a linear regression curve plotted going through y-intercept at LN(100).

Row | EC50 (Mut6 cells (TD-NSC); Mus musculus, 96 h) | half-life at 2 μM [1] | EC50 (Mut6 cells (TD-NSC)) | Compound
1 | 79 nM | 1.75 h | – | CN1CCCC1CCNC(=O)c1ccc(Sc2ccc(F)cc2)c([N+](=O)[O-])c1 (centres unmarked) [DS-1-061, 4-((4-fluorophenyl)thio)-N-(2-(1-methylpyrrolidin-2-yl)ethyl)-3-nitrobenzamide]
2 | 62 nM | 0.802 h | – | CCN1CCCC1CNC(=O)c1ccc(Sc2ccc(OC)cc2)c([N+](=O)[O-])c1 (centres unmarked) [DS-1-133, N-((1-ethylpyrrolidin-2-yl)methyl)-4-((4-methoxyphenyl)thio)-3-nitrobenzamide]
3 | 31 nM | 1.1 h | – | CCN1CCC[C@H]1CNC(=O)c1ccc(Sc2ccc(F)cc2)c([N+](=O)[O-])c1 [DS-1-053, (S)—N-((1-ethylpyrrolidin-2-yl)methy)-4-((4-fluorophenyl)thio)-3-nitrobenzamide]
4 | 58 nM | 0.445 h | – | CC1C2CCCN2CCN1C(=O)c1ccc(Sc2ccc(F)cc2)c([N+](=O)[O-])c1 (centres unmarked) [DS-1-279, (4-((4-fluorophenyl)thio)-3-nitrophenyl)(1-methylhexahydropyrrolo[1,2-a]pyrazin-2(1H)-yl)methanone]
5 | 132 nM | 4 h | – | O=C(NC[C@@H]1CCCN1)c1ccc(Sc2ccc(F)cc2)c([N+](=O)[O-])c1 [DS-1-085, (S)-4-((4-fluorophenyl)thio)-3-nitro-N-(pyrrolidin-2-ylmethyl)benzamide]
6 | 52 nM | 3.12 h | – | O=C(NCCN1CCCC1)c1ccc(Sc2ccc(F)cc2)c([N+](=O)[O-])c1 [DS-1-063, 4-((4-fluorophenyl)thio)-3-nitro-N-(2-(pyrrolidin-1-yl)ethyl)benzamide]
7 | 53 nM | 1.08 h | – | CCN1CCCC1CNC(=O)c1ccc(Sc2ccc(F)cc2)c(C#N)c1 (centres unmarked) [DS-1-227, 3-cyano-N-((1-ethylpyrrolidin-2-yl)methyl)-4-((4-fluorophenyl)thio)benzamide]
8 | – | 1.98 h | 45 nM | CCN1CCCC1CNC(=O)c1ccc(Sc2ccc(F)cc2)c([N+](=O)[O-])c1 (centres unmarked) [DS-1-033, N-((1-ethylpyrrolidin-2-yl)methyl)-4-((4-fluorophenyl)thio)-3-nitrobenzamide]
9 | – | 1.96 h | – | CCN1CCCC1CNC(=O)c1ccc(Oc2ccc(F)cc2)c(C#N)c1 (centres unmarked) [DS-1-311, 3-cyano-N-((1-ethylpyrrolidin-2-yl)methyl)-4-(4-fluorophenoxy)benzamide]
10 | 74 nM | 1.65 h | – | N#Cc1cc(C(=O)NCCN2CCOCC2)ccc1Oc1ccc(F)cc1 [DS-2-045, 3-cyano-4-(4-fluorophenoxy)-N-(2-morpholinoethyl)benzamide]
11 | 33 nM | 1.89 h | – | CCN1CCC[C@@H]1CNC(=O)c1ccc(Sc2ccc(F)cc2)c([N+](=O)[O-])c1 [DS-1-031, (R)—N-((1-ethylpyrrolidin-2-yl)methyl)-4-((4-fluorophenyl)thio)-3-nitrobenzamide]
12 | 51 nM | 1.46 h | – | CCN1CCCC1CNC(=O)c1ccc(Sc2ccc(F)cc2F)c([N+](=O)[O-])c1 (centres unmarked) [DS-1-125, 4-((2,4-difluorophenyl)thio)-N-((1-ethylpyrrolidin-2-yl)methyl)-3-nitrobenzamide]
13 | 42 nM | 1.56 h | – | O=C(NCCCN1CCOCC1)c1ccc(Sc2ccc(F)cc2)c([N+](=O)[O-])c1 [DS-1-283, 4-((4-fluorophenyl)thio)-N-(3-morpholinopropyl)-3-nitrobenzamide]
14 | – | 0.668 h | – | N#Cc1cc(C(=O)NCCN2CCOCC2)ccc1Sc1ccc(F)cc1 [DS-2-027, 3-cyano-4-((4-fluorophenyl)thio)-N-(2-morpholinoethyl)benzamide]
15 | 50 nM | 0.59 h | – | CCN1CCCC1CNC(=O)c1ccc(Sc2ccccc2)c([N+](=O)[O-])c1 (centres unmarked) [DS-1-055, N-((1-ethylpyrrolidin-2-yl)methyl)-3-nitro-4-(phenylthio)benzamide]
16 | 88 nM | 0.587 h | – | CCN1CCCC1CNC(=O)c1ccc(Sc2cccc(F)c2)c([N+](=O)[O-])c1 (centres unmarked) [DS-1-069, N-((1-ethylpyrrolidin-2-yl)methyl)-4-((3-fluorophenyl)thio)-3-nitrobenzamide]
17 | 150 nM | 1.54 h | – | CCN1CCCC1CNC(=O)c1ccc(Sc2ccncc2)c([N+](=O)[O-])c1 (centres unmarked) [DS-1-129, N-((1-ethylpyrrolidin-2-yl)methyl)-3-nitro-4-(pyridin-4-ylthio)benzamide]
18 | 51 nM | 1.48 h | – | CCN1CCCC1CNC(=O)c1ccc(Sc2ccc(Cl)cc2)c([N+](=O)[O-])c1 (centres unmarked) [DS-1-163, 4-((4-chlorophenyl)thio)-N-((1-ethylpyrrolidin-2-yl)methyl)-3-nitrobenzamide]
19 | – | 0.75 h | 22 nM | CCN(CC)CCNC(=O)c1ccc(Sc2ccc(F)cc2)c([N+](=O)[O-])c1 [DS-1-043, N-(2-(diethylamino)ethyl)-4-((4-fluorophenyl)thio)-3-nitrobenzamide]
20 | 236 nM | > 4 h | – | CCN1CCCC1CNC(=O)c1ccc(Sc2ccc(F)cc2)c(S(C)(=O)=O)c1 (centres unmarked) [DS-1-301, N-((1-ethylpyrrolidin-2-yl)methyl)-4-((4-fluorophenyl)thio)-3-(methylsulfonyl)benzamide]
21 | 35 nM | 1.6 h | – | CCN1CCCC1CNC(=O)c1ccc(SCc2ccc(F)cc2)c([N+](=O)[O-])c1 (centres unmarked) [DS-1-131, N-((1-ethylpyrrolidin-2-yl)methyl)-4-((4-fluorobenzyl)thio)-3-nitrobenzamide]
22 | 36 nM | 0.357 h | – | CCN1CCCC1CNCc1ccc(Sc2ccc(F)cc2)c([N+](=O)[O-])c1 (centres unmarked) [DS-1-079, 1-(1-ethylpyrrolidin-2-yl)-N-(4-((4-fluorophenyl)thio)-3-nitrobenzyl)methanamine]
23 | 192 nM | – | – | CCN1CCCC1CNC(=O)c1ccc(SC2CCCCC2)c([N+](=O)[O-])c1 (centres unmarked) [DS-1-139, 4-(cyclohexylthio)-N-((1-ethylpyrrolidin-2-yl)methyl)-3-nitrobenzamide]
24 | 287 nM | – | – | CN1CCN(CCNC(=O)c2ccc(Sc3ccc(F)cc3)c([N+](=O)[O-])c2)CC1 [DS-2-121, 4-((4-fluorophenyl)thio)-N-(2-(4-methylpiperazin-1-yl)ethyl)-3-nitrobenzamide]
25 | 87 nM | 0.683 h | – | CCN1CCCC1CNC(=O)c1ccc(Sc2ccc(F)cc2)c(F)c1 (centres unmarked) [DS-2-053, N-((1-ethylpyrrolidin-2-yl)methyl)-3-fluoro-4-((4-fluorophenyl)thio)benzamide]
26 | > 1000 nM | – | – | CCOC(=O)c1cc(F)ccc1Sc1ccc(C(=O)NCC2CCCN2CC)cc1[N+](=O)[O-] (centres unmarked) [DS-1-265, Ethyl 2-((4-(((1-ethylpyrrolidin-2-yl)methyl)carbamoyl)-2-nitrophenyl)thio)-5-fluorobenzoate]
